# Tested on: BL21*DE3 competent E. coli cells
# Experiment: Screening for glyphosate resistance on plates
# Assay type: cell-based
# Conditions: M63+ agar plates, 50 mM glyphosate, 0.05 mM IPTG, 50 ug/ml kanamycin, 36 hours at 37° C.
# Experimental: Library ligations were transformed into BL21*DE3 competent E. coli cells (Invitrogen). The transformations were performed according to the manufacturer's instructions with the following modifications. After incubation for 1 hour at 37° C. in SOC medium, the cells were sedimented by centrifugation (5 minutes, 1000×g, 4° C.). The cells were washed with 1 ml M63+, centrifuged again, and the supernatant decanted. The cells were washed a second time with 1 ml M63+ and resuspended in 200 ul M63+.
# For selection of mutant GRG1 enzymes conferring glyphosate resistance to E. coli, the cells were plated onto M63+ agar medium plates containing 50 mM glyphosate, 0.05 mM IPTG (isopropyl-beta-D-thiogalactopyranoside), and 50 ug/ml kanamycin. M63+ medium contains 100 mM KH2PO4, 15 mM (NH4)2SO4, 50 μM CaCl2, 1 μM FeSO4, 50 μM MgCl2, 55 mM glucose, 25 mg/liter L-proline, 10 mg/liter thiamine HCl, sufficient NaOH to adjust the pH to 7.0, and 15 g/liter agar. The plates were incubated for 36 hours at 37° C.
row,Substance,glyphosate resistance (growth on glyphosate plates)
1,L2-3 (PFIDCDESGLSIRMFTPIVALSK; Clone L2-3),glyphosate resistant
2,L2-7 (PFIECGESGLSIRLFTPLVALSK; Clone L2-7),glyphosate resistant
3,L2-6 (PFIDCGESGLSFRMFVPIVALSK; Clone L2-6),glyphosate resistant
4,L2-8 (PFIDCSESGLSFRMFAPLVALSK; Clone L2-8),glyphosate resistant
5,L2-4 (PFIKCRESGLSMRMFAPMVALSK; Clone L2-4),glyphosate resistant
6,L2-9 (PFINCGESGLSFRMFIPMVALSK; Clone L2-9),glyphosate resistant
7,L2-A (PFINCDESGLSFRMFTPIVALSK; Clone L2-A),glyphosate resistant

# From patent publication US20070294785A1, “METHODS FOR […] DIVERSITY BY PERMUTATIONAL MUTAGENESIS” (Athenix Corporation, priority 2006, published 2007)
